Laboratory results published in US20100173888A1 (Pfizer Inc, priority 2008, published 2010).
pIC50: −log10 of the molar value.

Target: T1, human recombinant H-PGDS (Homo sapiens, UniProt O60760)
Test: Slightly modified fluorescence intensity h-PGDS TBA enzyme assay (1:40,000 enzyme, 40 second reaction, 1/2 log dilutions, top concentration typically 10 μM)
Assay type: biochemical
Settings: slightly modified assay: 1:40,000 human recombinant H-PGDS
Method: Fluoresecence Intensity h-PGDSTBA Enzyme Assay
Prostaglandin D Synthase (PGDS) converts the substrate prostaglandin H2 (PGH2) to prostaglandin D2. The depletion of PGH2 was measured via an Fe(II) reduction of the remaining PGH2 to malondialdehyde (MDA) and 12-HHT. The enzyme assay is based on the quantitative formation of a fluorescent complex from the non-fluorescent compounds MDA and 2-thiobarbituric acid (TBA), substantially as described in U.S. patent application publication US-2004/152148 by Lombardt.
Examples 6-8, 11a-16, 23, 26-47, 49-103, 105-113, 115-118 and 126-128 were tested in a slightly modified assay: The enzyme assay (30 μls during biological process) contained 100 mM Trizma pH 8.0, 100 μM MgCl2, 0.1 mg/ml IgG Rabbit serum, 5.0 μM PGH2 (Cayman; ethanol solution, #17020), 2.5 mM L-Glutathione (Sigma; reduced form #G4251), 1:40,000 human recombinant H-PGDS (from 1 mg/ml), 0.5% DMSO and inhibitor (varying concentration). 3 μls of diluted inhibitor (dissolved in DMSO) was plated into a 384-well assay plate followed by a 24 μl addition of an enzyme solution containing h-PGDS, Trizma, MgCl2, IgG and L-Glutathione. After pre-incubation of inhibitor and enzyme solution for 10 minutes at room temperature, the reaction was initiated with a 3 μl addition of substrate solution in 10 mM HCl. The reaction was terminated after 40 second by the addition of 3 μl stop buffer containing FeCl2 and citric acid. After addition of 45 μls of TBA plates were heated for one hour in a 70° C. oven. Plates were cooled at room temperature overnight and read on a plate reader the next day with excitation @ 530 nm and emission @ 560 nm. IC50' s of inhibitors were calculated with a 4-parameter fit using 11 inhibitor concentrations in duplicate with ½ log serial dilutions. Controls on each plate included no inhibitor (zero % effect) and an inhibitor 500-fold in excess of its' IC50 (100% effect). The highest inhibitor concentration tested was typically 10 μM.

T1 sequence (O60760 whole entry): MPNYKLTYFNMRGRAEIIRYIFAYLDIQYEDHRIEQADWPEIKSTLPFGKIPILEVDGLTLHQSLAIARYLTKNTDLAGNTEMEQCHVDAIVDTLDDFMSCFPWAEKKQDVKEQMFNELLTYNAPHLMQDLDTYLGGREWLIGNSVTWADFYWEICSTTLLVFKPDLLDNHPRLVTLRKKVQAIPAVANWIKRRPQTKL

Row | Compound | pIC50
1 | C[C@@H]1CN(C(=O)[C@H]2CC[C@H](NC(=O)c3ccc(-c4cccc(F)c4)nc3)CC2)CCN1 [Example 102, 6-(3-Fluorophenyl)-N-(trans-4-{[(3R)-3-methylpiperazin-1-yl]carbonyl}cyclohexyl)nicotinamide] | 8.01
2 | O=C(N[C@H]1CC[C@H](CN2CCOCC2)CC1)c1ccc(-c2cccc(F)c2)nc1 [Example 110, 6-(3-Fluorophenyl)-N-[trans-4-(morpholin-4-ylmethyl)cyclohexyl]nicotinamide] | 8.23

Results, then the compound that gave them:

Row | pIC50 | Compound
3 | 7.99 | O=C(N[C@@H]1CC[C@H](C(=O)N2CC[C@H](O)C2)C1)c1ccc(-c2cccc(F)c2)nc1 [Example 15, 6-(3-Fluorophenyl)-N-[(1R,3S)-3-{[(3S)-3-hydroxypyrrolidin-1-yl]carbonyl}cyclopentyl]nicotinamide]
4 | 8.43 | O=C(N[C@H]1CCC[C@@H](C(=O)N2CCC(O)CC2)C1)c1ccc(-c2cccc(F)c2)nc1 (relative stereo) [Example 28, 6-(3-Fluorophenyl)-N-{cis-3-[(4-hydroxypiperidin-1-yl)carbonyl]cyclohexyl}nicotinamide]
5 | 7.77 | CN(C)CCCNC(=O)[C@@H]1CCC[C@H](NC(=O)c2ccc(-c3cccc(F)c3)nc2)C1 (relative stereo) [Example 64F, N-[cis-3-{[3-(dimethylamino)propyl]carbamoyl}cyclohexyl]-6-(3-fluorophenyl)nicotinamide]

Target: T1, human recombinant H-PGDS
Test: Fluorescence intensity h-PGDS TBA enzyme assay (PGH2 depletion, MDA/TBA fluorescence)
Assay type: biochemical
Settings: 1:175,000 human recombinant H-PGDS, 42 second reaction, 3-fold serial dilutions, highest concentration typically 1 μM
How it was run: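 Recombinant human H-PGDS preincubated with inhibitor 10 min at room temperature in pH 8.0 Tris, MgCl2, IgG, 2.5 mM glutathione, 0.5% DMSO. Reaction with 5.0 μM PGH2 stopped at 42 s with FeCl2/citric acid; MDA–TBA fluorescence (ex 530/em 565 nm) read after 70° C. IC50 by 4-parameter fit, 11 concentrations.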

Row | Compound | pIC50
6 | COCC1(O)CCC(NC(=O)c2ccc(-c3cccc(F)c3)nc2)CC1 (stereo not shown) [Example 235, 6-(3-Fluorophenyl)-N-[4-hydroxy-4-(methoxymethyl)cyclohexyl]nicotinamide] | 7.93
7 | O=C(NC1(c2ccccn2)CC1)c1ccc(-c2cccc(F)c2)nc1 [Example 1, 6-(3-Fluorophenyl)-N-(1-pyridin-2-ylcyclopropyl)nicotinamide] | 7.19
8 | CC(C)(O)C(=O)N[C@H]1CC[C@@H](NC(=O)c2ccc(-c3cccc(F)c3)nc2)CC1 [Example 216, 6-(3-Fluorophenyl)-N-{cis-4-[(2-hydroxy-2-methylpropanoyl)amino]cyclohexyl}nicotinamide] | 7.50
9 | C[C@H](O)C(=O)N[C@H]1CC[C@H](NC(=O)c2ccc(-c3cccc(F)c3)nc2)CC1 [Example 144, 6-(3-Fluorophenyl)-N-(trans-4-{[(2S)-2-hydroxypropanoyl]amino}cyclohexyl)nicotinamide] | 8.12
10 | CC(C)(CCO)NC(=O)[C@@H]1CC[C@H](NC(=O)c2ccc(-c3cccc(F)c3)nc2)C1 [Example 172, 6-(3-Fluorophenyl)-N-{(1S,3R)-3-[(3-hydroxy-1,1-dimethylpropyl)carbamoyl]cyclopentyl}nicotinamide] | 8.19
11 | CN(C)C(=O)[C@@]1(C)CCC[C@@H](NC(=O)c2ccc(-c3cccc(F)c3)nc2)C1 (relative stereo) [Example 237, N-[(1R*,3S*)-3-(Dimethylcarbamoyl)-3-methylcyclohexyl]-6-(3-fluorophenyl)nicotinamide] | 8.29
12 | O=C(N[C@H]1CCCC[C@@H]1O)c1ccc(-c2cccc(F)c2)nc1 [Example 25] | 7.65
13 | O=CN[C@H]1CC[C@H](NC(=O)c2ccc(-c3cccc(F)c3)nc2)CC1 [Example 113O, 6-(3-fluorophenyl)-N-(trans-4-formamidocyclohexyl)nicotinamide] | 8.14
14 | O=C(N[C@H]1CC[C@@H](C(=O)N2CCOCC2)C1)c1ccc(-c2cccc(F)c2)nc1 [Example 170, 6-(3-Fluorophenyl)-N-[(1S,3R)-3-(morpholin-4-ylcarbonyl)cyclopentyl]nicotinamide] | 8.37
15 | COCC(=O)N[C@H]1CC[C@H](NC(=O)c2ccc(-c3cccc(F)c3)nc2)CC1 [Example 113N, 6-(3-fluorophenyl)-N-{trans-4-[(methoxyacetyl)amino]cyclohexyl}nicotinamide] | 7.94
16 | COC(=O)C1(NC(=O)c2ccc(-c3cccc(C)c3)nc2)CC1 [Example 3, Methyl 1-({[6-(3-methylphenyl)pyridin-3-yl]carbonyl}amino)cyclopropanecarboxylate] | 6.61
17 | O=C(NC1CCC(O)(CN2CCCCC2)CC1)c1ccc(-c2cccc(F)c2)nc1 (stereo not shown) [Example 153, 6-(3-Fluorophenyl)-N-(4-hydroxy-piperidin-1-ylmethylcyclohexyl)nicotinamide] | 7.88
18 | NCC(=O)N[C@H]1CC[C@H](NC(=O)c2ccc(-c3cccc(F)c3)nc2)CC1 [Example 146, 6-(3-Fluorophenyl)-N-[trans-4-(glycylamino)cyclohexyl]nicotinamide] | 7.68
19 | CNC(=O)N(C)[C@H]1CC[C@H](NC(=O)c2ccc(-c3cccc(F)c3)nc2)CC1 [Example 272, 6-(3-Fluorophenyl)-N-{trans-4-[methyl(methylcarbamoyl)amino]cyclohexyl}nicotinamide] | 7.96
20 | NCC(=O)N[C@H]1CC[C@@H](NC(=O)c2ccc(-c3cccc(F)c3)nc2)CC1 [Example 224, 6-(3-fluorophenyl)-N-[cis-4-(glycylamino)cyclohexyl]nicotinamide] | 7.13
21 | CS(=O)(=O)NC[C@H]1CC[C@H](NC(=O)c2ccc(-c3cccc(F)c3)nc2)CC1 [Example 150, 6-(3-Fluorophenyl)-N-[trans 4(methanesulfonylaminomethyl)cyclohexyl]nicotinamide] | 8.05
22 | COc1cccc(-c2ccc(C(=O)NC3CCCc4ccccc43)cn2)c1 (stereo not shown) [Example 121, 6-(3-Methoxyphenyl)-N-(1,2,3,4-tetrahydronaphthalen-1-yl)nicotinamide] | 7.06

Second part, the compound after the results:

Row | pIC50 | Compound
23 | 7.79 | C[C@H](O)C(=O)N[C@H]1CCC[C@H](NC(=O)c2ccc(-c3cccc(F)c3)nc2)C1 [Example 246, 6-(3-Fluorophenyl)-N-{trans-3-{[(2S)-2-hydroxypropanoyl]amino}cyclohexyl]nicotinamide]
24 | 7.98 | CC(C)(O)C(=O)N[C@H]1CCC[C@H](NC(=O)c2ccc(-c3cccc(F)c3)nc2)C1 (relative stereo) [Example 248, 6-(3-Fluorophenyl)-N-trans-[3-(2-hydroxy-2-methylpropionylamino)cyclohexyl]nicotinamide]
25 | 7.83 | C[C@@H](CO)NC(=O)[C@H]1CCC[C@@H](NC(=O)c2ccc(-c3cccc(F)c3)nc2)C1 [Example 194]
26 | 7.36 | O=C(N[C@@H]1CCC[C@H](CNC(=O)[C@@H]2CCCN2)C1)c1ccc(-c2cccc(F)c2)nc1 [Example 259]
27 | 7.67 | NC1CCN(C(=O)[C@@H]2CC[C@H](NC(=O)c3ccc(-c4cccc(F)c4)nc3)C2)CC1 [Example 177, N-{(1S,3R)-3-[(4-Aminopiperidin-1-yl)carbonyl]cyclopentyl}-6-(3-fluorophenyl)nicotinamide]
28 | 8.13 | O=C(N[C@H]1CC[C@H](C(=O)N[C@H]2CCNC2=O)CC1)c1ccc(-c2cccc(F)c2)nc1 [Example 113C, 6-(3-fluorophenyl)-N-(trans-4-{[(3S)-2-oxopyrrolidin-3-yl]carbamoyl}cyclohexyl)nicotinamide]
29 | 7.29 | CN(C)CC(=O)NC[C@H]1CCC[C@@H](NC(=O)c2ccc(-c3cccc(F)c3)nc2)C1 (relative stereo) [Example 253]
30 | 7.96 | O=C(N[C@H]1CCC[C@@H](NC(=O)N2CCOCC2)C1)c1ccc(-c2cccc(F)c2)nc1 (relative stereo) [Example 267]
31 | 8.24 | CCN(C)C(=O)[C@@H]1CC[C@H](NC(=O)c2ccc(-c3cccc(F)c3)nc2)C1 [Example 157, N-{(1S,3R)-3-[ethyl(methyl)carbamoyl]cyclopentyl}-6-(3-fluorophenyl)nicotinamide]
32 | 5.73 | CN1CCC(NC(=O)[C@@H]2CC[C@H](NC(=O)c3ccc(-c4cccc(F)c4)nc3)C2)CC1 [Example 174, 6-(3-Fluorophenyl)-N-{(1S,3R)-3-[(1-methylpiperidin-4-yl)carbamoyl]cyclopentyl}nicotinamide]
33 | 7.77 | C[C@@H](CO)NC(=O)[C@H]1CCC[C@@H](NC(=O)c2ccc(-c3cccc(F)c3)nc2)C1 [Example 188]
34 | 7.87 | C[C@H](O)C(=O)N[C@@H]1CCC[C@H](NC(=O)c2ccc(-c3cccc(F)c3)nc2)C1 [Example 206, 6-(3-Fluorophenyl)-N-{cis-3-{[(2S)-2-hydroxypropanoyl]amino}cyclohexyl]nicotinamide]
